Patent publication US10124004B2, “Pyrido[3,4-d]pyrimidine derivative and pharmaceutically acceptable salt thereof” (Teijin Pharma Limited, priority 2015, dated 2018)
Where two headings read alike, the source gives them in different places.

Key:
[1] = target: T1, CDK2/cyclin A2 (Homo sapiens, UniProt P24941); experiment: Human CDK2/cyclin A2 inhibitory activity (QS S Assist CDK2/Cyclin A2_FP Kit, IMAP fluorescence polarization); assay type: biochemical
T1 construct: purchased Carna Biosciences, Inc. QS S Assist CDK2/Cyclin A2_FP Kit
How it was run: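 Kinase activity read as fluorescence polarization (485/535 nm) after phosphorylated fluorescent substrate binds IMAP reagent (30 min, RT, dark). Enzyme (2.5 ng/well) reacted 60 min at RT with ATP/substrate/metal in HEPES pH 7.4 buffer with Tween 20 and DTT; no-enzyme wells define 0% activity; IC50 by curve fit.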

[2] = target: T2, CDK4/cyclin D3 (Homo sapiens, UniProt P11802); experiment: Human CDK4/cyclin D3 inhibitory activity (QS S Assist CDK4/Cyclin D3_FP Kit, IMAP fluorescence polarization); assay type: biochemical
T2 construct: purchased Carna Biosciences, Inc. QS S Assist CDK4/Cyclin D3_FP Kit
T2 sequence (P11802 whole entry): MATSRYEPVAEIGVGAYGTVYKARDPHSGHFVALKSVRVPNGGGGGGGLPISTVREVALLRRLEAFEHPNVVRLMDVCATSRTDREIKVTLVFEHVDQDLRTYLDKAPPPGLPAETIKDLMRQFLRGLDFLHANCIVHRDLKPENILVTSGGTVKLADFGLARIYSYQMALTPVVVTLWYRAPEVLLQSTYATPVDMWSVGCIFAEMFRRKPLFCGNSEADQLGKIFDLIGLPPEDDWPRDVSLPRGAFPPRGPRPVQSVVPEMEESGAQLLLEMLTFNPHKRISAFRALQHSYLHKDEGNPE
T2 sequence (P30281 whole entry partner): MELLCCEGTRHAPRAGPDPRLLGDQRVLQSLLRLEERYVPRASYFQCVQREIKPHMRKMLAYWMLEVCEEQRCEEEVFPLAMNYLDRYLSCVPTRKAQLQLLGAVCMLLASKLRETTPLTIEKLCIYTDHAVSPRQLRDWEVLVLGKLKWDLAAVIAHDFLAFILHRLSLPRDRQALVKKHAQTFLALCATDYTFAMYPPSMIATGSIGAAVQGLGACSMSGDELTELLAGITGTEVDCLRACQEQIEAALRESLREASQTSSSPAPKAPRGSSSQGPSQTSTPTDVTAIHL
How it was run: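 IMAP fluorescence polarization kit: CDK4/cyclin D3 at 12.5-25 ng/well with kit ATP/substrate/metal mix in 20 mM HEPES pH 7.4, 0.01% Tween20, 2 mM DTT, 45 min at room temperature. FP read at 485/535 nm after 30 min binding; IC50 from dose-response fit of percent inhibition versus enzyme and no-enzyme controls.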

[3] = 50% inhibitory concentration against CDK2/cyclin A2, given as class symbol
[4] = 50% inhibitory concentration against CDK4/cyclin D3, given as class symbol
[5] = Human CDK2/cyclin A2 inhibitory activity, read-out: CDK2 Activity symbol
[6] = Human CDK4/cyclin D3 inhibitory activity, read-out: CDK4 Activity symbol

SMILES	IC50 [1, 3] [nM]	IC50 [2, 4] [nM]	IC50 [1, 5] [nM]	IC50 [2, 6] [nM]
CC(C)N(C)c1nc([C@@H](C)O)cc2cnc(Nc3ccc(N4CCNCC4=O)cn3)nc12 [Compound 871]	≥ 100	10 to 100	–	–
CC(C)Nc1nc([C@@H](C)O)cc2cnc(Nc3ccc(N4CCN(C(=O)OC(C)C)CC4)nn3)nc12 [Compound 767]	≥ 100	< 10	–	–
CC(C)Nc1nc(C(F)F)cc2cnc(Nc3ccc(CNS(C)(=O)=O)cn3)nc12 [Compound 140]	–	–	≥ 100	< 10
CO[C@H](C)c1cc2cnc(Nc3ccc(CN4CCNCC4)cn3)nc2c(N[C@@H]2CCCOC2)n1 [Compound 301]	–	–	≥ 100	< 10
CC(C)Nc1nc(C(F)F)cc2cnc(Nc3ccc(N4CC[C@H](O)CC4=O)cn3)nc12 [Compound 137]	–	–	10 to 100	< 10
CO[C@H](C)c1cc2cnc(Nc3ccc(CN4CC[C@@H](O)C4)cn3)nc2c(NC(C)C)n1 [Compound 270]	–	–	≥ 100	< 10
CC(C)Nc1nc(C2CCCO2)cc2cnc(Nc3ccc(N4CCNCC4=O)cn3)nc12 (stereo not shown) [Compound 670]	≥ 100	≥ 100	–	–
CO[C@H](C)c1cc2cnc(Nc3ccc(N4CCC(C)(N)CC4)nn3)nc2c(NC(C)C)n1 [Compound 560]	–	–	≥ 100	< 10
COCC(C)(C)Nc1nc([C@@H](C)O)cc2cnc(Nc3ccc(CN4CCn5ccnc5C4)cn3)nc12 [Compound 295]	–	–	≥ 100	10 to 100
CCCNc1nc([C@@H](C)O)cc2cnc(Nc3ccc4c(n3)CCNC4)nc12 [Compound 944]	≥ 100	< 10	–	–
CC(C)Nc1nc([C@@H](C)O)cc2cnc(Nc3ccc(N4CCN(C[C@@H](C)O)CCC4=O)cn3)nc12 [Compound 721]	≥ 100	< 10	–	–
CC(C)Nc1nc([C@@H](C)O)cc2cnc(Nc3ccc(CN4CCN(CC(C)(C)O)CC4)cn3)nc12 [Compound 626]	–	–	≥ 100	< 10
Cc1cc(Nc2ncc3cc([C@@H](C)O)nc(NC(C)C)c3n2)ncc1CN1CCN(CCO)CC1 [Compound 1055]	≥ 100	10 to 100	–	–
COCCNCc1ccc(Nc2ncc3cc([C@@H](C)O)nc(NC(C)(C)COC)c3n2)nc1 [Compound 242]	–	–	≥ 100	10 to 100
CCNc1nc([C@@H](C)O)cc2cnc(Nc3ccc(N4CCNCC4)cn3)nc12 [Compound 1001]	≥ 100	< 10	–	–
CO[C@H](C)c1cc2cnc(Nc3ccc(N4CCN[C@@H](C)C4=O)cn3)nc2c(NC(C)C)n1 [Compound 463]	–	–	≥ 100	< 10
CO[C@H](C)c1cc2cnc(Nc3ccc(N4CCNCC4)nn3)nc2c(SC(C)C)n1 [Compound 728]	≥ 100	< 10	–	–
CC(=O)N(Cc1ccc(Nc2ncc3cc(C(F)F)nc(NC(C)C)c3n2)nc1)CC1CCOCC1 [Compound 144]	–	–	≥ 100	< 10
COCC(C)(C)Nc1nc([C@@H](C)O)cc2cnc(Nc3ccc(CN4CC[C@@H](F)C4)cn3)nc12 [Compound 292]	–	–	≥ 100	10 to 100
CC(=O)c1cc2cnc(Nc3ccc(CN4CCNCC4)cn3)nc2c(NCC(C)C)n1 [Compound 912]	≥ 100	< 10	–	–

SMILES	IC50 [1, 3] [nM]	IC50 [2, 4] [nM]	IC50 [1, 5] [nM]	IC50 [2, 6] [nM]
CCCNc1nc(C2(C)COC2)cc2cnc(Nc3ccc(CN4CCNCC4)cn3)nc12 [Compound 1003]	≥ 100	< 10	–	–
CC(C)Nc1nc([C@@H](C)O)cc2cnc(Nc3ccc(N4CCN(C=O)CC4=O)cn3)nc12 [Compound 319]	–	–	≥ 100	< 10
CC(C)Nc1nc(C(F)F)cc2cnc(Nc3ccc(-n4cccn4)cn3)nc12 [Compound 210]	–	–	≥ 100	10 to 100
CC(C)Nc1nc(C(F)F)cc2cnc(Nc3ccc(CN4CCNCC4=O)cn3)nc12 [Compound 205]	–	–	10 to 100	< 10
CO[C@H](C)c1cc2cnc(Nc3ccc(CN4CCN(CCO)CC4)cn3)nc2c(NCC2CCOCC2)n1 [Compound 918]	≥ 100	< 10	–	–
CC(C)Nc1nc(C2CCOC2)cc2cnc(Nc3ccc4c(n3)CCN(CC(=O)O)C4)nc12 (stereo not shown) [Compound 1232]	≥ 100	< 10	–	–
Cc1c([C@@H](C)O)nc(NC(C)C)c2nc(Nc3ccc(N4CCNCC4)cn3)ncc12 [Compound 66]	–	–	≥ 100	< 10
CC(C)Nc1nc([C@@H](C)O)cc2cnc(Nc3ccc(CN4CCC(O)CC4)cn3)nc12 [Compound 1019]	≥ 100	< 10	–	–
CC(C)Nc1nc([C@@H](C)O)cc2cnc(Nc3ccc(N4CCN(CC(N)=O)CC4=O)cn3)nc12 [Compound 900]	≥ 100	< 10	–	–
CO[C@H](C)c1cc2cnc(Nc3ccc(CN4CCN(CC#N)CC4)cn3)nc2c(NC(C)C)n1 [Compound 969]	≥ 100	10 to 100	–	–
C[C@@H](O)c1cc2cnc(Nc3ccc(CN4CCC(CO)CC4)cn3)nc2c(NC(C)(C)C)n1 [Compound 1021]	≥ 100	< 10	–	–
CNC1CCN(c2ccc(Nc3ncc4cc([C@@H](C)O)nc(NC(C)C)c4n3)nn2)CC1 [Compound 497]	–	–	≥ 100	< 10
CNC1(C)CCN(c2ccc(Nc3ncc4cc([C@@H](C)O)nc(NC(C)C)c4n3)nn2)CC1 [Compound 601]	–	–	≥ 100	< 10
CC(=O)c1cc2cnc(Nc3ccc(OCCN(C)C)cn3)nc2c(NC(C)C)n1 [Compound 734]	≥ 100	< 10	–	–
CC(C)Nc1nc(C(F)F)cc2cnc(Nc3ccc(CN4CCNC5(CC5)C4)cn3)nc12 [Compound 175]	–	–	10 to 100	< 10
CC(C)Nc1nc(C(F)F)cc2cnc(Nc3ccc(N4CCNC(=O)C4)cn3)nc12 [Compound 83]	–	–	10 to 100	< 10
CC(C)Nc1nc([C@@H](C)O)cc2cnc(Nc3ccc(N4CCCC(C(=O)O)C4)nn3)nc12 (stereo partly shown) [Compound 793]	≥ 100	10 to 100	–	–
CCNc1nc([C@@H](C)O)c(C)c2cnc(Nc3ccc(CN4CCN(CCO)CC4)cn3)nc12 [Compound 1168]	≥ 100	< 10	–	–
C[C@@H](O)c1cc2cnc(Nc3ccc(CN4CCC[C@@H](O)C4)cn3)nc2c(N[C@H]2CC[C@H](O)CC2)n1 [Compound 1187]	≥ 100	< 10	–	–
CCCNc1nc([C@@H](C)O)cc2cnc(Nc3ccc(N4CCC(O)CC4)nn3)nc12 [Compound 1000]	≥ 100	10 to 100	–	–

SMILES	IC50 [1, 3] [nM]	IC50 [2, 4] [nM]	IC50 [1, 5] [nM]	IC50 [2, 6] [nM]
CO[C@H](C)c1cc2cnc(Nc3ccc(N4CCNCC4)nn3)nc2c(N[C@@H]2CCCOC2)n1 [Compound 305]	–	–	≥ 100	< 10
CO[C@H](C)c1cc2cnc(Nc3ccc(N4CCNCC4)nn3)nc2c(NC(C)(C)C)n1 [Compound 709]	≥ 100	< 10	–	–
CC(C)Nc1nc([C@@H](C)O)cc2cnc(Nc3ccc(N4CCN(C(C)(C)C)CC4)nn3)nc12 [Compound 604]	–	–	≥ 100	< 10
Cc1c(C(F)F)nc(NC(C)C)c2nc(Nc3ccc(N4CCNCC4)cn3)ncc12 [Compound 60]	–	–	≥ 100	< 10
O=C(O)[C@H]1CC[C@H](Nc2nc(C(F)F)cc3cnc(Nc4ccc(CN5CCNCC5)cn4)nc23)CC1 [Compound 383]	–	–	≥ 100	10 to 100
c1cc2c(nc1Nc1ncc3cc(C4CCOC4)nc(N[C@H]4CCCOC4)c3n1)CCNC2 (stereo partly shown) [Compound 886]	≥ 100	< 10	–	–
CC(C)Nc1nc([C@@H](C)O)cc2cnc(Nc3cnc(CN4CCN(CCO)CC4)cn3)nc12 [Compound 1050]	≥ 100	< 10	–	–
CNc1nc(C(F)F)cc2cnc(Nc3ccc(N4CCNCC4)cn3)nc12 [Compound 19]	–	–	≥ 100	< 10
CC(C)Nc1nc(C(F)F)cc2cnc(Nc3ccc(-c4ccc(O)cc4)cn3)nc12 [Compound 110]	–	–	≥ 100	≥ 100
CC(C)Nc1nc(C(F)F)cc2cnc(Nc3ccc(N4CCNCC4=O)cn3)nc12 [Compound 89]	–	–	10 to 100	< 10
CO[C@H](C)c1cc2cnc(Nc3ccc(N4CCNCC4)nn3)nc2c(N[C@H]2CC[C@H](C(=O)O)CC2)n1 [Compound 339]	–	–	≥ 100	10 to 100
CC(O)c1cc2cnc(Nc3ccc(N4CCNCC4)cn3)nc2c(NC2CCOCC2)n1 (stereo not shown) [Compound 12]	–	–	≥ 100	< 10
CC1(c2cc3cnc(Nc4ccc5c(n4)CCN(CCO)C5)nc3c(N[C@H]3CC[C@H](O)CC3)n2)COC1 [Compound 1155]	≥ 100	< 10	–	–
CC(C)Nc1nc([C@@H](C)O)cc2cnc(Nc3ccc(N4CCC5(CCNCC5)C4=O)cn3)nc12 [Compound 784]	≥ 100	< 10	–	–
CCNc1nc(C(F)F)cc2cnc(Nc3ccc(N4CCNCC4=O)cn3)nc12 [Compound 820]	10 to 100	< 10	–	–
CC(C)Nc1nc([C@@H](C)O)cc2cnc(Nc3ccc(N4CCN(C(=O)C(C)C)CC4)nn3)nc12 [Compound 746]	≥ 100	< 10	–	–
CCNc1nc([C@@H](C)O)cc2cnc(Nc3ccc(CN4CCN(C(C)CO)CC4)cn3)nc12 (single isomer, unassigned) [Compound 1089]	≥ 100	< 10	–	–
CC(C)Nc1nc(C(F)F)cc2cnc(Nc3ccc(CN4CCCC4C(=O)O)cn3)nc12 (stereo not shown) [Compound 189]	–	–	10 to 100	< 10
Cc1nc(Nc2ncc3cc([C@@H](C)O)nc(NC4CCC4)c3n2)ccc1N1CCNCC1 [Compound 1094]	≥ 100	< 10	–	–
